From US20030113916A1, “Method for producing somatic embryos of scot pine (p sylvestris)” (priority 2000, published 2003)

Test system: embryogenic cell lines F1, F2-1, F2-2, F2-3 (previously cryopreserved)
Experiment: Maturation of somatic embryos on media with different ammonium to nitrate molar ratios and carbon sources
Assay type: cell-based, Pinus sylvestris
Details: ABA tested at 20, 35 y 60 μM in previous evaluation
Experimental: For maturation process is highly relevant the interaction between nitrogen and carbon source, and the type of the carbon source. […] High concentration of abscisic acid has to be added when starting maturation in order to acquire best quality embryos and avoiding precocious germination; high average of conifers protocols ABA concentration varying between 16 μM and 24 μM. However for Pinus genera ABA is required between 60 μM and 100 μM. […] In order to produce gymnosperm mature somatic embryos with normal germination, is required such embryos developing on medium supplemented with high concentration of desiccant compound.
Under the evaluation done to produce normal embryos, was utilized between 400 and 600 mg of embryogenic tissue per sample, such amount was dispersed on filter paper as no thin layer, with two washing only with liquid mineral medium and they were exposed only two weeks on medium supplemented with activated charcoal.

CC1=CC(=O)CC(C)(C)[C@@]1(O)/C=C/C(C)=C\C(=O)O [ABA, abscisic acid]
Effect on maturation of the cell lines: non effect
